This data set is classed as in vivo, human. The settings on record: for Concentration of Chlordane in Vital Sample, Maternal Serum / Concentration of Chlordane in Vital Sample, Mother's Milk / Concentration of Endocrine-Disrupting Substance in Vital Sample, Cord Serum / Concentration of Endocrine-Disrupting Substance in Vital Sample, Maternal Serum / Concentration of Endocrine-Disrupting Substance in Vital Sample, Mother's Milk / Concentration of Chlordane in Vital Sample, Cord Serum: in fat; for Concentration of Chlordane in Vital Sample, Maternal Serum / Concentration of Chlordane in Vital Sample, Mother's Milk / Concentration of Chlordane in Vital Sample, Cord Serum: individual chlordanes; for PCB isomer value in the cord serum as compared with the maternal serum: cord serum vs maternal serum, confidence coefficient: 95% or more; for Concentration of Endocrine-Disrupting Substance in Vital Sample, Cord Serum / Concentration of Endocrine-Disrupting Substance in Vital Sample, Maternal Serum / Concentration of Endocrine-Disrupting Substance in Vital Sample, Mother's Milk: samples from 10 mothers. The text has this: Maternal serum, cord serum and mother's milk samples collected from 10 mothers were used (30 samples in total). These samples were used for the analysis test after obtaining the consent from the subjects.
The GPC column used was Shodex (registered trademark) EV-200AC Column (polystyrene-base hard gel column having an inner diameter of 2 mm and a length of 150 mm) manufactured by Showa Denko K. K.
A programmed temperature vaporizer (PTV) was equipped and in the GC part, an inactivated silica tube (2 m (length)×0.53 mm (inner diameter)) and capillary columns DB-5 (0.5 m (length)×0.25 mm (inner diameter), film thickness: 0.25 μm; and 60 m (length)×0.25 mm (inner diameter), film thickness: 0.1 μm), both manufactured by J & W Scientific, were used. After the injection of solution, the temperature was kept at 83° C. (for 5 minutes) and then elevated to 172° C. at 1° C./min and further to 270° C. at 50° C./min. The measurement was performed at 280° C.
In the main test below, the internal standard substances used were 3 kinds of PCBs marked by ^13C (3,3′,4,4′-tetrachlorobiphenyl, 3,3′,4,4′,5-pentachlorobiphenyl, 3,3′,4,4′,5,5′-hexachlorobiphenyl), hexachlorobenzene (HCB) and p,p′-dichlorodiphenyl dichloroethylene (DDE).
The cord serum (8 ml), the maternal serum (4 ml) and the mother's milk (2 ml) each was subjected to fat extraction according to the method by Patterson et al. More specifically, the sample was charged into a separating funnel, the internal standard substance was added, and then saturated ammonium sulfate, ethanol and hexane were added at a ratio of about 1:1:3. After shaking to cause separation into two layers, the aqueous layer was transferred to a different separating funnel and hexane was added thereto. After shaking to cause separation into two layers, the hexane layer was combined with the organic layer obtained at the first separation, washed with water, dried over anhydrous sodium sulfate, filtered, concentrated and dried. Thereafter, the total weight of fat was measured. The average fat amount was 0.197% in the cord serum, 0.895% in the maternal serum and 3.04% in the mother's milk.
Acetone/cyclohexane (3:7) (v/v) was passed through the GPC column at a flow rate of 0.1 ml/min and 20 μl of a solution obtained by dissolving the fat extracted above in 50 to 100 μl of a solvent having the same composition was injected into the GPC.
Based on the results in the preliminary measurement, the elution composition of 0 to 3.2 minutes after the injection of sample was discarded and the fraction of 3.2 to 5.2 minutes was collected in a sample loop (storage amount: 200 μl) and introduced into GC/MS at 5.2 to 7.5 minutes.
The results are shown in Table 1 together with analysis results of other endocrine-disrupting substances.

In the case of `ClC1=C(Cl)[C@]2(Cl)[C@H]3C[C@H](Cl)[C@H](Cl)[C@H]3[C@@]1(Cl)C2(Cl)Cl` (relative stereo) [cis-Chlordane], the “Concentration of Chlordane in Vital Sample, Maternal Serum” value worked out at 0.86 ppb and the “Concentration of Chlordane in Vital Sample, Mother's Milk” value worked out at 0.93 ppb.

Consider `Clc1ccc(-c2cc(Cl)c(Cl)cc2Cl)cc1Cl` [#118], for which the “PCB isomer value in the cord serum as compared with the maternal serum” value was “significantly low”.

Turning to `Clc1cc(Cl)c(-c2cc(Cl)c(Cl)cc2Cl)cc1Cl` [#153], the “PCB isomer value in the cord serum as compared with the maternal serum” value is recorded as “significantly low”.

On to `Clc1cc(Cl)c(-c2cc(Cl)c(Cl)c(Cl)c2)c(Cl)c1` [#168], for which the “PCB isomer value in the cord serum as compared with the maternal serum” value is recorded as “significantly low”.

For `Clc1ccc(-c2cc(Cl)c(Cl)c(Cl)c2Cl)c(Cl)c1Cl` [#170], the “PCB isomer value in the cord serum as compared with the maternal serum” value was “significantly low”.

Turning to `ClC(Cl)=C(c1ccc(Cl)cc1)c1ccc(Cl)cc1` [DDE, p,p′-dichlorodiphenyl dichloroethylene], the “Concentration of Endocrine-Disrupting Substance in Vital Sample, Cord Serum” value worked out at 278.63 ppb; the “Concentration of Endocrine-Disrupting Substance in Vital Sample, Maternal Serum” value was determined as 314.48 ppb; the “Concentration of Endocrine-Disrupting Substance in Vital Sample, Mother's Milk” value came to 343.62 ppb.

Turning to `Clc1c(Cl)c(Cl)c(Cl)c(Cl)c1Cl` [HCB, hexachlorobenzene], the “Concentration of Endocrine-Disrupting Substance in Vital Sample, Cord Serum” value amounted to 14.14 ppb; the “Concentration of Endocrine-Disrupting Substance in Vital Sample, Maternal Serum” value amounted to 15.71 ppb; the “Concentration of Endocrine-Disrupting Substance in Vital Sample, Mother's Milk” value is reported as 14.08 ppb.

Regarding `ClC1=C(Cl)C2(Cl)C3C4OC4C(Cl)C3C1(Cl)C2(Cl)Cl` (stereo not drawn) [HCE, heptachloroepoxide], the “Concentration of Endocrine-Disrupting Substance in Vital Sample, Cord Serum” value is given as 1.55 ppb; the “Concentration of Endocrine-Disrupting Substance in Vital Sample, Maternal Serum” value came out at 2.61 ppb; the “Concentration of Endocrine-Disrupting Substance in Vital Sample, Mother's Milk” value was 3.06 ppb.

Take `ClC1C(Cl)C(Cl)C(Cl)C(Cl)C1Cl` (stereo not drawn) [HCH, hexachlorocyclohexane]: the “Concentration of Endocrine-Disrupting Substance in Vital Sample, Cord Serum” value is 189.54 ppb; the “Concentration of Endocrine-Disrupting Substance in Vital Sample, Maternal Serum” value amounted to 271.49 ppb; the “Concentration of Endocrine-Disrupting Substance in Vital Sample, Mother's Milk” value is 315.58 ppb.

Regarding `ClC1=C(Cl)C2(Cl)C3C(Cl)C=CC3C1(Cl)C2(Cl)Cl` (stereo not drawn) [Heptachlor], the “Concentration of Endocrine-Disrupting Substance in Vital Sample, Cord Serum” value worked out at 1.20 ppb; the “Concentration of Endocrine-Disrupting Substance in Vital Sample, Maternal Serum” value was determined as 1.17 ppb; the “Concentration of Endocrine-Disrupting Substance in Vital Sample, Mother's Milk” value was 0.30 ppb.

Consider `ClC1=C(Cl)[C@]2(Cl)[C@H]3[C@H]([C@H](Cl)[C@]4(Cl)O[C@H]34)[C@@]1(Cl)C2(Cl)Cl` [Oxychlordane], for which the “Concentration of Chlordane in Vital Sample, Cord Serum” value is 6.66 ppb; the “Concentration of Chlordane in Vital Sample, Maternal Serum” value is reported as 6.30 ppb; the “Concentration of Chlordane in Vital Sample, Mother's Milk” value stood at 6.49 ppb.

Take `ClC1=C(Cl)[C@]2(Cl)[C@H]3[C@H]([C@H](Cl)C(Cl)[C@@H]3Cl)[C@@]1(Cl)C2(Cl)Cl` (stereo partly drawn) [cis-Nonachlor]: the “Concentration of Chlordane in Vital Sample, Cord Serum” value was 0.91 ppb; the “Concentration of Chlordane in Vital Sample, Maternal Serum” value is given as 1.54 ppb; the “Concentration of Chlordane in Vital Sample, Mother's Milk” value is 2.25 ppb.

In the case of `ClC1=C(Cl)[C@]2(Cl)[C@H]3[C@H]([C@H](Cl)C(Cl)[C@@H]3Cl)[C@@]1(Cl)C2(Cl)Cl` (stereo partly drawn) [trans-Nonachlor], the “Concentration of Chlordane in Vital Sample, Cord Serum” value is recorded as 16.35 ppb; the “Concentration of Chlordane in Vital Sample, Maternal Serum” value is recorded as 17.08 ppb; the “Concentration of Chlordane in Vital Sample, Mother's Milk” value turned out to be 19.58 ppb.

`ClC1=C(Cl)[C@]2(Cl)C3C(Cl)C(Cl)CC3[C@@]1(Cl)C2(Cl)Cl` (stereo partly drawn) [γ-Chlordane]: the “Concentration of Chlordane in Vital Sample, Cord Serum” value is on record as 1.64 ppb; the “Concentration of Chlordane in Vital Sample, Maternal Serum” value came out at 1.43 ppb; the “Concentration of Chlordane in Vital Sample, Mother's Milk” value was determined as 1.66 ppb.

For the origin of these results see patent US20040241871A1, “Method and apparatus for analyzing endocrine-distrupting substances in vital sample” (priority 2001, published 2004).
